According to patent US20240009195A1, “NOVEL USES” (INTRA-CELLULAR THERAPIES, INC., priority 2020, published 2024):

Tests used:
hPDE1A = hPDE1A (Homo sapiens, UniProt P54750); test: IMAP PDE assay, selectivity table; format: biochemical
hPDE1C = hPDE1C (Homo sapiens, UniProt Q14123); test: IMAP PDE assay, selectivity table; format: biochemical
[1] = system: guinea pig cardiomyocytes; test: Glucagon co-administration with PDE1 inhibitor in guinea pig cardiomyocytes (sarcomere shortening, Ca2+ transients); format: cell-based; settings: glucagon (1 μM) plus Compound 1 (1 μM) vs glucagon alone, 37° C., pacing at 1 Hz
Protocol: Studies were carried out to test the effect of glucagon co-administration with a PDE1 inhibitor in guinea pig cardiomyocytes. Myocytes were isolated according to Liu et al., Circulation Research, 2014. A thoracotomy was performed on anesthetized guinea pigs to remove the heart. The aorta was cannulated on a Langendorf apparatus fitted with a heating jacket circulating water at 37° C., and were retrogradely perfused for 5 minutes at 8 ml/min. The perfusate was switched to a Tyrode's solution containing […] (Worthington) and protease type 14 (Sigma-Aldrich) for 7-9 minutes. The solution was switched to a modified Kraft-Bruhe (KB) buffer for 5 minutes, before being minced and filtered to yield single cells. Isolated cells were incubated in a modified KB buffer (Isenberg et al., Pflugers Arch, 1982] for an hour, before being placed in supplemented M199 ACCIT medium. (Ellingsen et al., American J Physiology, 1993) Cells were kept at room temperature, and used within 7 hours.
Changes in cell sarcomere shortening and Ca^2+ transients were measured using a customized IonOptix system previously described. (Hashimoto et al., Circulation, 2018). Briefly, cells were loaded using 1 μM Fura-2 for 15 minutes, and washed out for at least 20 minutes. Baseline recording was made in Tyrode's buffer described above, with 0.1% DMSO. […]

hPDE1C, sequence (Q14123 whole entry): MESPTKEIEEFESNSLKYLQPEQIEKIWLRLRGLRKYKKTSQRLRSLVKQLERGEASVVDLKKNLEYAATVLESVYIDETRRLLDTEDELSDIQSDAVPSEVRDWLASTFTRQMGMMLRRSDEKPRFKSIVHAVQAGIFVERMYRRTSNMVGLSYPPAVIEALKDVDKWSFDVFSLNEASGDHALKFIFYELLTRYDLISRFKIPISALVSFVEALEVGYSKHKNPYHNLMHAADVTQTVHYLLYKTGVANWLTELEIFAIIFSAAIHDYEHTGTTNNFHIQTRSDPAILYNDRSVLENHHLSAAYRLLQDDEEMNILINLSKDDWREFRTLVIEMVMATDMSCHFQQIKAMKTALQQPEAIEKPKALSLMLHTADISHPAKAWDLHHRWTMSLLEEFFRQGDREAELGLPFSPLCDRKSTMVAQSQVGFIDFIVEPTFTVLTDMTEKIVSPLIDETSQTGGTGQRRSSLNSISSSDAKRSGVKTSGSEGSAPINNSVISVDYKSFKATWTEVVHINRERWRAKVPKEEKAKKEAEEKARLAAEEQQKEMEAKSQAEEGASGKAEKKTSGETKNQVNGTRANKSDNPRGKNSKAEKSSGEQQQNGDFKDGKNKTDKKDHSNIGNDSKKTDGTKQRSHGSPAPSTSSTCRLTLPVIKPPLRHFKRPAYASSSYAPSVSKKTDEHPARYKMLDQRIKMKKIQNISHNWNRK
hPDE1A, sequence (P54750 whole entry): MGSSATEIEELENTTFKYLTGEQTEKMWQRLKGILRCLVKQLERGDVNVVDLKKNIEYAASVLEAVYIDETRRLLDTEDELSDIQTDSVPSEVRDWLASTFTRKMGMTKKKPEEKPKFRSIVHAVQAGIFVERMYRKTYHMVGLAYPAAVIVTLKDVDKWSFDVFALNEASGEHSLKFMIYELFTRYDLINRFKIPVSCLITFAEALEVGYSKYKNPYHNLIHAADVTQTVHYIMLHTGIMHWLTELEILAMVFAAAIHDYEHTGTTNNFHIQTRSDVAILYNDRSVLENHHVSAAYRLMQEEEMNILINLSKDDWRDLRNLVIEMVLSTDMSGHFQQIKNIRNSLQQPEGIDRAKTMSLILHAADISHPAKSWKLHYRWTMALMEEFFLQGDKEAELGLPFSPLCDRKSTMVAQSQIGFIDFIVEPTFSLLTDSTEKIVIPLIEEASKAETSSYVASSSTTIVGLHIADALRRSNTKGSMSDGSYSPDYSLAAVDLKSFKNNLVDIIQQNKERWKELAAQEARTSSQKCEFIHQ

IC50 (hPDE1A): 0.027 nM
IC50 (hPDE1C): 0.037 nM
SMILES: CN1C(=O)c2c(nn(Cc3ccc(-c4cccc(F)n4)cc3)c2Nc2ccccc2)N2C1=N[C@@H]1CCC[C@@H]12 [Compound 1]
change in cell sarcomere shortening ([1]; FIG. 1): increased the beneficial effects of glucagon
peak Ca2+ transient amplitude ([1]; FIG. 2): increased the beneficial effects of glucagon
